Here are results for 23 compounds from US10954193B2 (Vanderbilt University, priority 2013, dated 2021).

What is called Ki is a dissociation constant, usually derived from enzyme kinetics or from competition with a known ligand.

Like-named read-outs stand apart in the source and are kept apart here.

The test concerns the target recombinant Mcl-1 (residues 172-327) (Homo sapiens (Human), UniProt Q07820). Description: Bak peptide binding assay, fluorescence polarization anisotropy competition (FITC-Bak), Mcl-1. (Polarisation of emitted light reports the rotation of a fluorescent probe.)
Setting [1] is: Table 3, binned ranges, FITC-Bak peptide 10 nM, Mcl-1 14 nM, read-out: Ki for inhibition of Mcl-1.
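Note: displacement of labeled Bak peptide read by fluorescence anisotropy, 10-point threefold dilutions from 20 µM top dose in 5% DMSO, 90 min incubation at room temperature.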

Sequence of recombinant Mcl-1 (residues 172-327) (Q07820 172-327): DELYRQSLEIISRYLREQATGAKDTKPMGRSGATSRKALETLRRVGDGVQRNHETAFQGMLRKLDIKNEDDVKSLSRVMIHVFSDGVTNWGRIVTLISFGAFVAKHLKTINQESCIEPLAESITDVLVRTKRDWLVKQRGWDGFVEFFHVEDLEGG

`Cc1cc(OCCCc2cn(CCC(=O)O)c3c(-c4cc[nH]n4)cccc23)cc(C)c1Cl` [Example 35, 3-(3-(3-(4-chloro-3,5-dimethylphenoxy)propyl)-7-(1H-pyrazol-3-yl)-1H-indol-1-yl)propanoic acid]: the Ki under setting [1] lay in the range of 101 to 299 nM.

As for `Cc1cc(OCCCc2cn(CCC(=O)O)c3c(-c4cn[nH]c4)cccc23)cc(C)c1Cl` [Example 36, 3-(3-(3-(4-chloro-3,5-dimethylphenoxy)propyl)-7-(1H-pyrazol-4-yl)-1H-indol-1-yl)propanoic acid], the Ki under setting [1] fell in the range of 101 to 299 nM.

`Cc1cc(OCCCc2cn(CCC(=O)NS(=O)(=O)c3ccccc3)c3cc(Cl)ccc23)cc(C)c1Cl` [Example 37, 3-(6-chloro-3-(3-(4-chloro-3,5-dimethylphenoxy)propyl)-1H-indol-1-yl)-N-(phenylsulfonyl)propanamide]: the Ki lay in the range of 101 to 299 nM. As to `Cc1cc(OCCCc2cn(CCC(=O)NS(=O)(=O)Cc3ccccc3)c3cc(Cl)ccc23)cc(C)c1Cl` [Example 38, N-(benzylsulfonyl)-3-(6-chloro-3-(3-(4-chloro-3,5-dimethylphenoxy)propyl)-1H-indol-1-yl)propanamide], the Ki under setting [1] fell in the range of 301 to 500 nM. In the case of `Cc1cc(OCCCc2cn(CCC(=O)NS(=O)(=O)C3CC3)c3cc(Cl)ccc23)cc(C)c1Cl` [Example 39, 3-(6-chloro-3-(3-(4-chloro-3,5-dimethylphenoxy)propyl)-1H-indol-1-yl)-N-(cyclopropylsulfonyl)propanamide], the Ki under setting [1] fell in the range of 301 to 500 nM. On the same count and under the same terms, as for `Cc1cc(OCCCc2cn(CCC(=O)NS(=O)(=O)c3ccc(Oc4ccccc4)cc3)c3cc(Cl)ccc23)cc(C)c1Cl` [Example 40, 3-(6-chloro-3-(3-(4-chloro-3,5-dimethylphenoxy)propyl)-1H-indol-1-yl)-N-((4-phenoxyphenyl)sulfonyl)propanamide], the figure is 301 to 500 nM; as for `COc1ccc(Oc2ccc(S(=O)(=O)NC(=O)CCn3cc(CCCOc4cc(C)c(Cl)c(C)c4)c4ccc(Cl)cc43)cc2)cc1` [Example 41, 3-(6-chloro-3-(3-(4-chloro-3,5-dimethylphenoxy)propyl)-1H-indol-1-yl)-N-((4-(4-methoxyphenoxy)phenyl)sulfonyl)propanamide], 101 to 299 nM. Same read-out and setting: as for `Cc1cc(OCCCc2c(C)n(CCC(=O)NS(C)(=O)=O)c3cc(Cl)ccc23)cc(C)c1Cl` [Example 46, 3-(6-chloro-3-(3-(4-chloro-3,5-dimethylphenoxy)propyl)-2-methyl-1H-indol-1-yl)-N-(methylsulfonyl)propanamide], the figure is at most 100 nM; as for `Cc1cc(OCCCc2c(C#N)n(CCC(=O)O)c3ccccc23)cc(C)c1Cl` [Example 48, 3-(3-(3-(4-chloro-3,5-dimethylphenoxy)propyl)-2-cyano-1H-indol-1-yl)propanoic acid], 501 to 999 nM. Consider `Cc1cc(OCCCc2c(C#N)n(CC(=O)NS(C)(=O)=O)c3ccccc23)cc(C)c1Cl` [Example 50, 2-(3-(3-(4-chloro-3,5-dimethylphenoxy)propyl)-2-cyano-1H-indol-1-yl)-N-(methylsulfonyl)acetamide], for which, under setting [1], the Ki is 1000 to 9990 nM. On the same count and under the same terms, as for `Cc1cc(OCCn2cc(CC(=O)O)c3ccccc32)cc(C)c1Cl` [Example 62, 2-(1-(2-(4-chloro-3,5-dimethylphenoxy)ethyl)-1H-indol-3-yl)acetic acid], the figure is 1000 to 9990 nM. The same measure, in the same setting: in the case of `Cc1cc(OCCCc2c(C)n(CC(=O)O)c3c(-c4ccnn4C)cccc23)cc(C)c1Cl` [Example 64, 2-(3-(3-(4-chloro-3,5-dimethylphenoxy)propyl)-2-methyl-7-(1-methyl-1H-pyrazol-5-yl)-1H-indol-1-yl)acetic acid] it was 101 to 299 nM; in that of `Cc1cc(OCCCc2c(C)n(CC(=O)O)c3c(-c4c(C)noc4C)cccc23)cc(C)c1Cl` [Example 66, 2-(3-(3-(4-chloro-3,5-dimethylphenoxy)propyl)-7-(3,5-dimethylisoxazol-4-yl)-2-methyl-1H-indol-1-yl)acetic acid], 101 to 299 nM; in that of `Cc1cnccc1-c1cccc2c(CCCOc3cc(C)c(Cl)c(C)c3)c(C)n(CC(=O)O)c12` [Example 67], 101 to 299 nM.

On to `Cc1cc(OCCCc2c(C)n(CC(=O)O)c3c(-c4cccn4C)cccc23)cc(C)c1Cl` [Example 68, 2-(3-(3-(4-chloro-3,5-dimethylphenoxy)propyl)-2-methyl-7-(1-methyl-1H-pyrrol-2-yl)-1H-indol-1-yl)acetic acid], for which the Ki under setting [1] fell in the range of 101 to 299 nM. On the same count and under the same terms, as for `Cc1cnccc1-c1cccc2c(CCCOc3cc(C)c(Cl)c(C)c3)c(C)n(CCC(=O)O)c12` [Example 72, 3-(3-(3-(4-chloro-3,5-dimethylphenoxy)propyl)-2-methyl-7-(3-methylpyridin-4-yl)-1H-indol-1-yl)propanoic acid], the figure is at most 100 nM; as for `Cc1cc(OCCCc2c(C)n(CCC(=O)O)c3c(-c4cccn4C)cccc23)cc(C)c1Cl` [Example 73, 3-(3-(3-(4-chloro-3,5-dimethylphenoxy)propyl)-2-methyl-7-(1-methyl-1H-pyrrol-2-yl)-1H-indol-1-yl)propanoic acid], at most 100 nM. Take `Cc1cc(OCCCc2c(C)n(CCC(=O)O)c3c(-c4cccnc4C)cccc23)cc(C)c1Cl` [Example 75, 3-(3-(3-(4-chloro-3,5-dimethylphenoxy)propyl)-2-methyl-7-(2-methylpyridin-3-yl)-1H-indol-1-yl)propanoic acid]: the Ki under setting [1] was at most 100 nM.

Consider `CCn1nc(C)c(-c2cccc3c(CCCOc4cc(C)c(Cl)c(C)c4)c(C)n(CCC(=O)O)c23)c1C` [Example 77, 3-(3-(3-(4-chloro-3,5-dimethylphenoxy)propyl)-7-(1-ethyl-3,5-dimethyl-1H-pyrazol-4-yl)-2-methyl-1H-indol-1-yl)propanoic acid], for which the Ki under setting [1] was at most 100 nM. Still for that read-out and setting: as for `Cc1cc(OCCCc2c(C)n(CCC(=O)O)c3c(-c4c(C)nn(CCN5CCOCC5)c4C)cccc23)cc(C)c1Cl` [Example 79, 3-(3-(3-(4-chloro-3,5-dimethylphenoxy)propyl)-7-(3,5-dimethyl-1-(2-morpholinoethyl)-1H-pyrazol-4-yl)-2-methyl-1H-indol-1-yl)propanoic acid], the figure is at most 100 nM; as for `Cc1cc(OCCCc2c(C)n(CCC(=O)O)c3c(-c4c(C)nn(CCN5CCCC5)c4C)cccc23)cc(C)c1Cl` [Example 80, 3-(3-(3-(4-chloro-3,5-dimethylphenoxy)propyl)-7-(3,5-dimethyl-1-(2-(pyrrolidin-1-yl)ethyl)-1H-pyrazol-4-yl)-2-methyl-1H-indol-1-yl)propanoic acid], at most 100 nM; as for `Cc1cc(OCCCc2c(C)n(CCC(=O)NS(C)(=O)=O)c3c(-c4ccnn4C)cccc23)cc(C)c1Cl` [Example 81, 3-(3-(3-(4-chloro-3,5-dimethylphenoxy)propyl)-2-methyl-7-(1-methyl-1H-pyrazol-5-yl)-1H-indol-1-yl)-N-(methylsulfonyl)propanamide], at most 100 nM. In the case of `Cc1ccncc1-c1cccc2c(CCCOc3cc(C)c(Cl)c(C)c3)c(C)n(CCC(=O)NS(C)(=O)=O)c12` [Example 82, 3-(3-(3-(4-chloro-3,5-dimethylphenoxy)propyl)-2-methyl-7-(4-methylpyridin-3-yl)-1H-indol-1-yl)-N-(methylsulfonyl)propanamide], the Ki under setting [1] is at most 100 nM.
